We go through 39 compounds from PubChem BioAssay AID1159563 (GlaxoSmithKline (GSK), 2015).

As usually defined, the IC50 is the concentration that gives 50% inhibition.

The assay concerns HepG2 cytotoxicity. The assay is described as follows: HepG2 cell cytotoxicity, cytotoxicity control (AID 1159563).

Activity calls are given as the source filed them. How the calls were made is not given here. Some results are limits rather than exact numbers.

On to `CCCCc1cc(Nc2cc(C3CCC3)[nH]n2)nc(N2CCC2C(N)=O)n1` (centres undefined), for which the IC50 is > 100 µM (inactive).
In the case of `CC(C)(C)CC(=O)NCCc1csc(-c2ccc(F)cc2)n1`, the IC50 is > 100 µM (inactive).
In the case of `O=C1COC(c2ccccc2)(c2ccccc2)CN1C1CCN(Cc2ccc(-n3ccnc3)cc2)CC1`, the IC50 was 50 µM.
`O=S(=O)(NCC(c1cccnc1)N1CCN(c2ccc(F)cc2)CC1)c1cccs1` (centres undefined): the IC50 was > 100 µM (inactive).
For `Cc1cc(C)c(C#N)c(SCC(=O)c2ccc3c(c2)OCO3)n1`, the IC50 is > 100 µM (inactive).
For the compound `CC(Cn1ccnc1)NC(=O)C1CC1c1cccc(Cl)c1Cl` (centres undefined), the IC50 is > 100 µM (inactive).
Take `O=C(CSc1nnc2ccc(-c3ccc(F)cc3)nn12)N1CCCCC1`: the IC50 was > 100 µM (inactive).
On to `Cc1ccc(Nc2nc(-c3ccccn3)cc(N3CCCC(O)C3)n2)cc1` (centres undefined), for which the IC50 was 40 µM.
Next, `O=C(Cc1ccc2c(c1)CCC2)Nc1n[nH]c(-c2ccccn2)n1`: 50 µM; `CCN(CC)c1ccc(S(=O)(=O)N(CC)CC)c2nonc12`: > 100 µM (inactive); `O=c1cc(CSc2ccc(Cl)cc2)nc(-c2ccccn2)[nH]1`: > 100 µM (inactive).
In the case of `CC(=O)Nc1ccc(-c2csc(NC(=O)c3ccc([N+](=O)[O-])s3)n2)cc1` it was 50 µM.
In the case of `COc1ccc(CNc2cc(C3CC3)nc(-c3nccn3C)n2)cc1` it was 25 µM; in that of `CN(C)Cc1cccc(Nc2nccc(-c3ccc(NCCN)c(C#N)c3)n2)c1`, 25 µM.
With `CCC(=O)N1N=C(c2ccc3c(c2)CCCC3)Sc2c1ncn2C(=O)CC`, the IC50 was > 100 µM (inactive).
Next, `CCCc1nc2nc(N)nc(N)c2cc1CC`: 20 µM; `COc1cccc(Nc2cc(C)nc(-c3ccccn3)n2)c1`: 50 µM.
For the compound `COc1ccc(C(=O)[C@H]2C[C@@H]2CN(Cc2ccccn2)Cc2ccccn2)cc1`, the IC50 was > 100 µM (inactive).
Next, `COc1ncc(-c2ccc3nccc(-c4ccncc4)c3c2)cc1NS(=O)(=O)C1CC1`: > 100 µM (inactive); `CS(=O)(=O)c1cccc(CNC(=O)c2cncc(N3CCN(c4ccc(F)cc4)CC3)c2)c1`: > 100 µM (inactive).
`CN1CCN(c2nc(-c3ccc(Cl)cc3)c3c(N)n(C)nc3n2)CC1`: the IC50 is 79 µM.
`c1ccc2sc(Nc3nc4ncccc4[nH]3)nc2c1`: the IC50 is 20 µM.
Next, `COc1ccc(C(=O)Nc2cc(C(F)(F)F)ccc2N2CCOCC2)c(OC)c1`: > 100 µM (inactive); `O=C(Nc1cccc(S(=O)(=O)Nc2ccc(Br)cc2)c1)c1ccc([N+](=O)[O-])s1`: 16 µM; `COc1ncc(-c2ccc3ncnc(N4CCOCC4)c3c2)cc1NS(C)(=O)=O`: > 100 µM (inactive).
As to `Cc1cccc(N2CCCN(Cc3c[nH]c4ccccc34)CC2)n1`, the IC50 was 13 µM.
Next, `O=C1c2cnc(N3CCCC3)nc2CN1c1ccc2c(c1)OCO2`: > 100 µM (inactive); `Cc1nc(C(=O)Nc2ccc3c(c2)OCO3)nn1-c1ccc(F)cc1`: > 100 µM (inactive); `COc1ccc2ncc(F)c(NC(=O)C3(O)CCC(NCc4ccc5c(c4)OCCO5)CC3)c2n1` (centres undefined): 50 µM.
Consider `Fc1ccc(Nc2nc(-c3ccccn3)cs2)cc1`, for which the IC50 was > 100 µM (inactive).
Next, `CCN(Cc1ccncc1)Cc1ccc(NC(=O)c2cc(-c3ccc(F)cc3)n[nH]2)cc1`: > 100 µM (inactive).
Consider `COc1ccc(-c2cc(C)no2)cc1S(=O)(=O)Nc1ccc(F)c(Cl)c1`, for which the IC50 is 79 µM.
In the case of `Cc1cc(C)n(-c2nc(NC(C)(C)C)nc(N3CCOCC3)n2)n1` it was 100 µM; in that of `O=C(Nc1nc2cc(Cl)ccc2o1)c1cccc(Cl)c1`, > 100 µM (inactive); in that of `C=CCOCC1Cn2nc([N+](=O)[O-])nc2O1` (centres undefined), > 100 µM (inactive).
In the case of `Cn1ccnc1-c1nc(NCc2ccccc2Cl)cc(C2CC2)n1` it was 20 µM.
Next, `COc1cc(-c2nc(N3CCOCC3)sc2-c2ccnc(NC3CCOCC3)n2)ccc1Cl`: > 100 µM (inactive).
In the case of `CC(c1ccc2c(c1)CCCC2)N(C)c1ncc2c(N)nc(N)nc2n1` (centres undefined), the IC50 is 50 µM.
Next, `O=C(Nc1ccc(C(F)(F)F)cc1)Nc1cccc([N+](=O)[O-])c1`: 10 µM.
